Test results reported in EPA's ToxValDB 9.5 (doi:10.2903/j.efsa.2006.56r).
Values joined by “and” are separate entries in the source; they are usually repeats but may differ in a detail not shown here. Equal entries are not always repeated.

Legend:
Rattus norvegicus = conditions: for LD50: acute, mortality
Pontoscolex corethrurus = conditions: for LC50: acute, mortality
Plant = conditions: acute
Apis mellifera = conditions: acute; for LD50: mortality
Oryctolagus sp. = conditions: developmental; development
Colinus virginianus = conditions: for LC50: diet
Anas platyrhynchos = conditions: acute; oral; unspecified; mortality
Anatidae = conditions: reproductive
Tagia sp. = conditions: chronic/long-term
[1] = chronic, duration: 2 years, oral, diet, M, organ weight

Row | Compound | LD50 (Rattus norvegicus; oral) | NOAEL (Rattus norvegicus; chronic) | NOAEL (Rattus norvegicus; [1]) | LC50 (Pontoscolex corethrurus) | NOEC (Pontoscolex corethrurus; chronic/long-term) | LEC (Plant) | LEC (Apis mellifera; dermal) | LD50 (Apis mellifera; oral, unspecified) | NOAEL (Oryctolagus sp.) | LC50 (Colinus virginianus; acute, oral, mortality) | LD50 (Colinus virginianus; acute, oral, mortality) | LEC (acute) | LEC (chronic) | LD50 (Anas platyrhynchos) | NOAEL (Rattus norvegicus; reproduction developmental, reproduction) | NOAEL (Rattus norvegicus; subchronic, duration: 13 weeks, oral, diet, M/F, histopathology: nonneoplastic) | NOEC (Anatidae) | LD50 (Apis mellifera; dermal) | NOEC (Tagia sp.) | NOEC (Colinus virginianus; reproduction developmental)
1 | CCCCOCCOC(=O)COc1nc(Cl)c(Cl)cc1Cl [Triclopyr butotyl] | 803 mg/kg | 5 mg/kg-day | 3 mg/kg-day | > 521 mg/kg | 9.6 mg/kg | 2200 µg/L | > 100 µg/piece | > 100 µg/piece | 30 mg/kg-day | 1890 mg/kg-day | 735 mg/kg |  |  |  |  |  |  |  |  | 
2 | O=C(O)COc1nc(Cl)c(Cl)cc1Cl [Triclopyr] | 630 mg/kg |  | 3 mg/kg-day | > 983 mg/kg |  |  |  | > 100 µg/piece | 30 mg/kg-day | 1030 mg/kg-day |  | 117 mg/L and > 131 mg/L and 75.8 mg/L | 46.3 mg/L and 48.5 mg/L | 1700 mg/kg | 25 mg/kg-day | 5 mg/kg-day | 30 mg/kg-day | > 100 µg/piece | 9.6 mg/kg | 500 mg/kg-day
